From US11179398B2, “Purine derivative for use in the treatment or prevention of diseases caused by a nonsense mutation” (MUSÉUM NATIONAL D'HISTOIRE NATURELLE, priority 2016, dated 2021)
Entries after “also recorded” stand apart in the source; their conditions may differ. Read-outs that look alike come from different tables or passages of the source. Marks after values point to notes of the source that are not given here.

Assays:
[1] = tested on: Salmonella typhimurium TA102; conditions: positive control, TA102, with S9, 5.00 μg/well
Description: (§1) The positive controls used are:
(§2) The experiments were conducted once in triplicate.

[2] = tested on: Salmonella typhimurium TA100; conditions: positive control
Description: as §1, §2

[3] = tested on: Salmonella typhimurium TA1535; conditions: positive control
Description: as §1, §2

[4] = tested on: Salmonella typhimurium TA98; assay: Compensatory mutation test on bacteria, TA98; conditions: positive control, TA98, with S9, 1.00 μg/well
Description: (§5) The test was conducted in the absence or presence of a metabolic solution called S9 mixture (S9 mixture of rat liver treated with aroclor. The concentration of the S9 fraction in the S9 mixture is of 10%).
(§6) The solvent used is dimethyl sulfoxide (DMSO), the volume containing the molecule to be tested or DMSO alone is of 25 μl per well.
(§7) For the tests conducted in the presence of the S9 mixture, 2-anthranine at 1 μg/well for the TA98, TA100 and TA1535 strains or of 5 μg/well for the TA102 or TA1537 strains.
(§8) The treatment in the absence of presence of the S9 mixture was conducted by adding it directly in the wells.

[5] = tested on: Salmonella typhimurium TA1537; assay: Compensatory mutation test on bacteria, TA1537; conditions: positive control, TA1537, with S9, 5.0 μg/well
Description: as §5, §6, §7, §8

Calu-6 cells [6] = assay: Cellular growth and apoptosis measurement; format: cell-based
Description: Briefly, the cells are removed from their support using typisin and centrifuged for 5 minutes at 200 g.

[7] = tested on: luciferase gene carrying a UGA premature stop codon; assay: Luciferase readthrough assay in transfected HeLa cells, UGA construct; format: cell-based, human; conditions: for concentration at which the molecule starts to significantly correct the nonsense mutation: dose-response 0.39 μM to 600 μM; for concentration of maximum correction effectiveness: luciferase activity; for correcting activity of nonsense mutations (luciferase activity): 25 μM, 24 hours
Text: The DMSO represents the negative control.

L5178Y TK+/- cells [8] = assay: In vitro test of the micronuclei; conditions: for treated/solvent ratio: positive control
Description: (§9) The cells used are L5178Y TK^+/− cells obtained from ATCC (American Type Culture Collection, Manassas, USA) via Biovalley (Marne-la-Vallée, France) for the induction of micronuclei.
(§10) In the test with metabolic activation, the culture medium is supplemented with 5% of the S9 mixture, thus the final concentration of S9 in the treated medium is of 2%.
(§11) The cells were treated for 24 hours in the absence of the S9 mixture or treated for 3 hours followed by 24 hours of culture without treatment when the S9 mixture was present in the culture medium.
(§12) The experiment was conducted and 1000 single-nucleus cells were analysed per culture.
(§13) The assessment of the cytotoxicity was determined by measuring the doubling of the cell population at the end of the experiment.

[9] = tested on: luciferase gene carrying a premature UGA stop codon; assay: Synergy with clitocin, luciferase UGA readthrough assay in HeLa cells; format: cell-based, human; conditions: DAP alone at 25 μM
Description: The luciferase activity is measured by adding the SteadyLite plus substrate (Perkin Elmer) to the culture medium and the plates are read with a Tristar luminometer (Berthold). The plate is read twice.

[10] = tested on: p53 target genes p21 and Noxa in Calu-6 cells; assay: Expression of p53 target genes p21 and Noxa by RT-PCR; format: cell-based; conditions: 20 hours
Text: The RNAs were purified with RNazol (MRC) and underwent a RT-PCR as described in Gonzalez-Hilarion et al. (2012). The resulting cDNA were then amplified after 35 cycles of PCR using the p21 mRNA primers (sense: 5′-[…]-3′; SEQ ID NO: 5; antisense 5′-[…]-3′; SEQ ID NO: 6); GADD45 mRNA (sense: 5′-[…]-3′; SEQ ID NO: 7; antisense 5′-[…]-3′; SEQ ID NO: 8); NOXA mRNA (sense: 5′-[…]-3′; SEQ ID NO: 9; antisense 5′-[…]-3′; SEQ ID NO: 10).

[11] = tested on: gene TP53 carrying an UGA nonsense mutation at codon 196 (Calu-6 cells); assay: Western blot of p53 re-expression in Calu-6 cells; format: cell-based
Description: (§3) For the purpose of validating the above screening results, the correction of nonsense mutations was measured for endogenous genes carrying nonsense mutations in an immortalised cell line of lung cancer Calu-6 (ATCC, USA) comprising a UGA mutation in the codon 196 of the gene TP53 (FIG. 2A), an immortalised cell line Caco-2 carrying a UAG mutation at the level of codon 204 (FIG. 2B) and an immortalised cell line Caov-3 carrying a UAA nonsense mutation at the level of codon 136 (FIG. 2C).
(§4) The proteins are extracted from the cell in a lysis buffer, then analysed by SDS-PAGE gel at 10% as previously described in Gonzalez-Hilarion et al. (2012). Briefly, after migration, the proteins are transferred onto a nitrocellulose membrane and placed in the presence of an anti-p53 antibody (D01; Santa-Cruz), and then of a secondary anti-mouse antibody (Jackson Immuno Research).

Calu-6 cells [12] = assay: Phenotype of culture cells under white light microscope; format: cell-based
[13] = tested on: gene TP53 carrying an UAG mutation at codon 204 (Caco-2 cells); assay: Western blot of p53 re-expression in Caco-2 cells; format: cell-based
Description: as §3, §4

L5178Y TK+/- cells [14] = conditions: mouse
Description: as §9, §10, §11, §12, §13

[15] = tested on: luciferase gene carrying a UAA premature stop codon; assay: Luciferase readthrough assay in transfected HeLa cells, UAA construct; conditions: 25 μM
Description: (§14) The position of the premature stop codon is such that if the protein synthesis stops at the premature stop codon, the synthesised truncated luciferase protein is not functional.

[16] = tested on: gene TP53 carrying an UAA nonsense mutation at codon 136 (Caov-3 cells); assay: Western blot of p53 re-expression in Caov-3 cells; format: cell-based
Description: as §3, §4

[17] = tested on: luciferase gene carrying a UAG premature stop codon; assay: Luciferase readthrough assay in transfected HeLa cells, UAG construct; conditions: 25 μM
Description: as §14

[18] = tested on: NMD (mRNA p53 in Calu-6 cells); assay: NMD inhibition: RT-PCR of p53 mRNA carrying a UGA nonsense mutation; format: cell-based; conditions: 6.25 μM, 25 μM, 24 hours
Text: The RNAs were purified with RNazol (MRC) and underwent a RT-PCR as described in Gonzalez-Hilarion et al. (2012). The resulting cDNA were then amplified after 35 cycles of PCR using the p53 sense primer (5′-[…]-3′; SEQ ID NO: 1), antisense p53 (5′-[…]-3′; SEQ ID NO: 2), sense GAPDH (5′-[…]-3′; SEQ ID NO: 3), antisense GAPDH (5′-[…]-3′; SEQ ID NO: 4).

[19] = TA1535, without S9, 0.5 μg/well

Nc1ccc2cc3ccccc3cc2c1 [2AM, 2-anthramine]
average number of revertants per well [1]: 91.0
treated/solvent ratio [1]: 2.0
average number of revertants per well ([2]; TA100, with S9, 1.0 μg/well): 696.0
treated/solvent ratio ([2]; TA100, with S9, 1.0 μg/well): 17.4
average number of revertants per well ([3]; TA1535, with S9, 1.0 μg/well): 137.7
treated/solvent ratio ([3]; TA1535, with S9, 1.0 μg/well): 41.3
average number of revertants per well [4]: 686.7
treated/solvent ratio [4]: 98.1
average number of revertants per well [5]: 36.0
treated/solvent ratio [5]: 13.5

CN[C@@H]1[C@@H](O)[C@@H](O[C@@H]2[C@@H](O)[C@H](O[C@H]3O[C@H]([C@@H](C)O)[C@@H](O)[C@H](O)[C@H]3N)[C@@H](N)C[C@H]2N)OC[C@]1(C)O [G418]
percentage of apoptotic cells (Calu-6 cells [6]; G418 600 μM, from the 4th day of culture): > 30%
concentration at which the molecule starts to significantly correct the nonsense mutation [7]: 6.25 µM
concentration of maximum correction effectiveness ([7]; HeLa cells): > 600 µM

O=P1(N(CCCl)CCCl)NCCCO1 (stereo not drawn) [CPA, cyclophosphamide, reference compound]
treated/solvent ratio (L5178Y TK+/- cells [8]; with S9 mix, 6 μg/mL): 60.0 **

O=C(O)c1cccc(-c2noc(-c3ccccc3F)n2)c1 [ataluren]
correcting activity of nonsense mutations (luciferase activity) ([7]; HeLa cells): ineffective; also recorded: no correction activity

Sc1ncnc2nc[nH]c12 [6-mercaptopurine]
correcting activity of nonsense mutations (luciferase activity) ([7]; HeLa cells): do not have a correcting activity; also recorded: no correction activity

CO[C@@]12[C@H](COC(N)=O)C3=C(C(=O)C(C)=C(N)C3=O)N1C[C@@H]1N[C@@H]12 [MMC, mitomycin C, reference compound]
treated/solvent ratio (L5178Y TK+/- cells [8]; without S9 mix): 100.0 **

Nc1nc(N)c2nc[nH]c2n1 [DAP, 2,6-diaminopurine]
luminescence measured [9]: 50,000
concentration from which the expression of the target genes of p53 increases [10]: ≥ 6.25 µM
synthesis of readthrough protein ([11]; 25 μM of DAP versus G418 600 μM): greater than with G418
minimal concentration at which wild-size protein p53 (p53 FL) is detected ([11]; Calu-6 cells, 20 hours, Western blot): 6.25 µM
concentration of maximum production of p53 FL ([11]; Calu-6 cells, Western blot): 25 µM
doses with severe cytotoxicity (L5178Y TK+/- cells [8]; in the absence of the S9 mixture, 24 hours): greater than 0.15 mM
doses with slight cytotoxicity (L5178Y TK+/- cells [8]; in the presence of the S9 mixture, 3 hours + 24 hours): greater than 0.07 mM
genotoxic effect (frequency of cells containing micronuclei) (L5178Y TK+/- cells [8]; in the presence or absence of the S9 mixture, listed as 2,6-DAP): no genotoxic effect; also recorded: does not induce any damage to the chromosomes or cell machinery involved in the cell division
percentage of apoptotic cells (Calu-6 cells [6]; DAP 6.25 μM or 25 μM, D4 to D10): ≤ 15%
concentration from which more dying cells (round appearance) are observed (Calu-6 cells [12]): ≥ 600 µM
re-expression of protein p53 [13]: does not make it possible to re-express the protein
DP (% of the control substance) (L5178Y TK+/- cells [14]; 3 h, 0.01 nM): 76 % of the control substance
DP (% of the control substance) (L5178Y TK+/- cells [14]; 3 h, 0.02 nM): 89 % of the control substance
DP (% of the control substance) (L5178Y TK+/- cells [14]; 3 h, 0.04 nM): 91 % of the control substance
DP (% of the control substance) (L5178Y TK+/- cells [14]; 3 h, 0.07 nM): 74 % of the control substance
DP (% of the control substance) (L5178Y TK+/- cells [14]; 3 h, 0.29 nM): 73 % of the control substance
DP (% of the control substance) (L5178Y TK+/- cells [14]; 3 h, 0.58 nM): 54 % of the control substance
DP (% of the control substance) (L5178Y TK+/- cells [14]; 3 h, 2.33 nM): 44 % of the control substance
DP (% of the control substance) (L5178Y TK+/- cells [14]; 3 h, 4.66 nM): 40 % of the control substance
reduction of the doubling of the population (L5178Y TK+/- cells [14]; 24 h): 79-100%
DP (% of the control substance) (L5178Y TK+/- cells [14]; 24 h, 0.01 nM): 91 % of the control substance
DP (% of the control substance) (L5178Y TK+/- cells [14]; 24 h, 0.02 nM): 121 % of the control substance
DP (% of the control substance) (L5178Y TK+/- cells [14]; 24 h, 0.04 nM): 78 % of the control substance
DP (% of the control substance) (L5178Y TK+/- cells [14]; 24 h, 0.07 nM): 97 % of the control substance
effect on the UAA codon (luciferase activity) [15]: no effect
re-expression of protein p53 [16]: does not make it possible to re-express the protein p53
effect on the UAG codon (luciferase activity) [17]: no effect
correcting activity of nonsense mutations (luciferase activity) ([7]; HeLa cells): able to correct the UGA stop codons much more effectively than G418 or ataluren
correction of the nonsense UGA mutation (luciferase activity) compared with G418 at 25 μM ([7]; DAP at 25 μM, HeLa cells): eighteen times more effective
correction of the nonsense UGA mutation (luciferase activity) compared with G418 at 2400 μM ([7]; DAP at 25 μM, HeLa cells): more than three times more effective
EC50 ([7]; Homo sapiens, HeLa): 54 µM
correction of the UGA nonsense mutation compared with G418 ([7]; both at 6.25 μM): five times higher
concentration at which the molecule starts to significantly correct the nonsense mutation [7]: 6.25 µM
concentration of maximum correction effectiveness ([7]; HeLa cells): 100 µM
inhibition of NMD (stabilising an mRNA carrying a premature stop codon) [18]: not an NMD inhibitor

Sc1ncc2[nH]cnc2n1 [2-mercaptopurine]
correcting activity of nonsense mutations (luciferase activity) ([7]; HeLa cells): do not have a correcting activity; also recorded: no correction activity

[N-]=[N+]=[N-] [NaN3, sodium azide]
average number of revertants per well ([2]; TA100, without S9, 1.0 μg/well): 232.3
treated/solvent ratio ([2]; TA100, without S9, 1.0 μg/well): 5.5
average number of revertants per well [3, 19]: 206.7
treated/solvent ratio [3, 19]: 77.5
